Measurements: patent US20230285377A1, “KCNT1 INHIBITORS AND METHODS OF USE” (Praxis Precision Medicines, Inc., priority 2020, published 2023)

Target: KCNT1 (KNa1.1, Slack) (Homo sapiens (Human), UniProt Q5JUK3)
Assay: KCNT1-WT-Basal - Patch Clamp Assay
Type: cell-based
Details: tetracycline inducible HEK-TREX cell line; SyncroPatch 384PE automated patch clamp; step to 0 mV; room temperature
Experimental: Inhibition of KCNT1 (KNa1.1, Slack) was evaluated using a tetracycline inducible cell line (HEK-TREX). Currents were recorded using the SyncroPatch 384PE automated, patch clamp system. Pulse generation and data collection were performed with PatchController384 V1.3.0 and DataController384 V1.2.1 (Nanion Technologies). The access resistance and apparent membrane capacitance were estimated using built-in protocols. Current were recorded in perforated patch mode (10 µM escin) from a population of cells. The cells were lifted, triturated, and resuspended at 800,000 cells/ml. The cells were allowed to recover in the cell hotel prior to experimentation. Currents were recorded at room temperature. The external solution contained the following (in mM): NaCl 105, NMDG 40, KC1 4, MgC12 1, CaC12 5 and HEPES 10 (pH = 7.4, Osmolarity ~300 mOsm). The extracellular solution was used as the wash, reference and compound delivery solution. The internal solution contained the following (in mM): NaCl 70, KF 70, KC1 10, EGTA 5, HEPES 5 and Escin 0.01 (pH = 7.2, Osmolarity ~295 mOsm). Escin is made at a 5 mM stock in water, aliquoted, and stored at -20° C. The compound plate was created at 2x concentrated in the extracellular solution. The compound was diluted to 1:2 when added to the recording well. The amount of DMSO in the extracellular solution was held constant at the level used for the highest tested concentration. A holding potential of -80 mV with a 100 ms step to 0 mV was used. Mean current was measured during the step to 0 mV. […] The average mean current from 3 sweeps was calculated and the % inhibition of each compound was calculated. The % Inhibition as a function of the compound concentration was fit with a Hill equation to derive IC50, slope, min and max parameters. If KCNT1 inhibition was less than 50% at the highest tested concentration or if an IC50 could not be calculated, then a percent inhibition was reported in place of the IC50.
In this table, “A” indicates IC50 of less than or equal to 1 µM; “B” indicates inhibition of between 1 µM to 20 µM; and “C” indicates inhibition of greater than or equal to 20 µM.

KCNT1 (KNa1.1, Slack), sequence (Q5JUK3 whole entry): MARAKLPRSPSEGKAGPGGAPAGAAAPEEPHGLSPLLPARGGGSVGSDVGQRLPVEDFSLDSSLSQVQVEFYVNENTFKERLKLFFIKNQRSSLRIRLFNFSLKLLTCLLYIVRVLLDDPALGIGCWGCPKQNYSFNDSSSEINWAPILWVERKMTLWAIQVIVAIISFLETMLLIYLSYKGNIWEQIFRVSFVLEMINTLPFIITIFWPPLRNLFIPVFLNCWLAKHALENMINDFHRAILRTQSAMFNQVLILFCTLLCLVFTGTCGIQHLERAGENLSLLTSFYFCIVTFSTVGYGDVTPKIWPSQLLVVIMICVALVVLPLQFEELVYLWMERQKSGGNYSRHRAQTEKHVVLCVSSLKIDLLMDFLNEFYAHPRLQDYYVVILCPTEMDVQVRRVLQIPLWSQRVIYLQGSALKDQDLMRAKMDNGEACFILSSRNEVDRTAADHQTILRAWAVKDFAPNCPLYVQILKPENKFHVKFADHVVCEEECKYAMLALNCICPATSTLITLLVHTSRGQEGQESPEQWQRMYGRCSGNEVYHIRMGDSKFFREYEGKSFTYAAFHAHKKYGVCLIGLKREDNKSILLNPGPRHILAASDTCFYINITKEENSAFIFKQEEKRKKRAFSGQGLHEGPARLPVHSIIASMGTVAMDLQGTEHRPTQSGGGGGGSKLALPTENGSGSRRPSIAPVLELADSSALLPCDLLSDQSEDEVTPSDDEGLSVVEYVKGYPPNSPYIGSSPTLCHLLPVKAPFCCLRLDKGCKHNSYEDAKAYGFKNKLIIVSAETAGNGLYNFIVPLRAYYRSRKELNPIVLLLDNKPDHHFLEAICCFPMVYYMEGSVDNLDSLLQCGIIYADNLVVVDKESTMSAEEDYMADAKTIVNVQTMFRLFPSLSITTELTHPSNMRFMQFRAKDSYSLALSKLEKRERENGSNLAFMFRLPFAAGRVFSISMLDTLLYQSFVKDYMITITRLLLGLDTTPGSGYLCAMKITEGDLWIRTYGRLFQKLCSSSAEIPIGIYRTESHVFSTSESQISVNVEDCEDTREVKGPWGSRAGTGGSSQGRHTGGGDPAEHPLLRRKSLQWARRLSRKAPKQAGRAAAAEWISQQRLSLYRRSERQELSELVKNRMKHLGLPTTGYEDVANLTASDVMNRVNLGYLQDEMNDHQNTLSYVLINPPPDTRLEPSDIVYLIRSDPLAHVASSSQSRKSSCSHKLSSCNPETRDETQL

IC50 [µM]	Structure (SMILES)
1 to 20	C[C@H](NC(=O)c1cc(C(F)(F)F)nn1C)c1nc(N2CCCCC2)ns1 [Example 46, 2-methyl-N-[(1S)-1-[3-(1-piperidyl)-1,2,4-thiadiazol-5-yl]ethyl]-5-(trifluoromethyl)pyrazole-3-carboxamide]
1 to 20	C[C@@H](NC(=O)c1cc(C(F)(F)F)nn1C)c1nc(N2CCCCC2)ns1 [Example 47, 2-methyl-N-[(1R)-1-[3-(1-piperidyl)-1,2,4-thiadiazol-5-yl]ethyl]-5-(trifluoromethyl)pyrazole-3-carboxamide]
